Earlier results on 6 compounds are cited in publication PMC7036871, “Identification and Characterization of pantocin wh-1, a Novel Cyclic Polypeptide Produced by Pantoea dispersa W18” (Molecules, 2020).

Values after ≈ are worked out from the molar mass of the structure shown. Where two headings read alike, the source gives them in different places.

For the data set, the system named is M. tuberculosis. Also noted: method as in 8 sources, ref [15],[16] = [15]; PMID 24684906; doi:10.1016/j.chembiol.2014.01.014; 15. Gavrish E. Sit C.S. Cao S. Kandror O. Spoering A. Peoples A. Ling L. Fetterman A. Hughes D. Bissell A. Lassomycin, a ribosomally synthesized cyclic peptide, kills mycobacterium tuberculosis by tar || [16]; PMID 24766844; doi:10.1016/j.chembiol.2014.04.002; 16. Parish T. Targeting mycobacterial proteolytic complexes with natural products Chem. Biol. 2014 21 437 438 10.1016/j.chembiol.2014.04.002 24766844 ||| ref [17] = [17]; PMID 25421483; doi:10.1128/AAC.04054-14; 17. Gao W. Kim J.Y. Anderson J.R. Akopian T. Hong S. Jin Y.Y. Kandror O. Kim J.W. Lee I.A. Lee S.Y. The cyclic peptide ecumicin targeting ClpC1 is active against Mycobacterium tuberculosis in vivo Ant ||| ref [18],[19] = [18]; PMID 21969594; doi:10.1073/pnas.1110385108; 18. Sass P. Josten M. Famulla K. Schiffer G. Sahl H.G. Hamoen L. Brotz-Oesterhelt H. Antibiotic acyldepsipeptides activate ClpP peptidase to degrade the cell division protein FtsZ Proc. Natl. Acad. Sc || [19]; PMID 22123255; doi:10.1128/JB.06142-11; 19. Ollinger J. O’Malley T. Kesicki E.A. Odingo J. Parish T. Validation of the Essential ClpP Protease in Mycobacterium tuberculosis as a Novel Drug Target J. Bacteriol. 2012 194 663 668 10.1128/JB.06 ||| ref [20] = [20]; PMID 22987724; doi:10.1002/emmm.201201689; 20. Hartkoorn R.C. Sala C. Neres J. Pojer F. Magnet S. Mukherjee R. Uplekar S. Boy-Rottger S. Altmann K.H. Cole S.T. Towards a new tuberculosis drug: Pyridomycin-nature’s isoniazid Embo. Mol. Med. 201 ||| ref [21] = [21]; PMID 10747933; doi:10.1074/jbc.M000569200; 21. Kremer L. Douglas J.D. Baulard A.R. Morehouse C. Guy M.R. Alland D. Dover L.G. Lakey J.H. Jacobs W.R. Brennan P.J. Thiolactomycin and related analogues as novel anti-mycobacterial agents targeting ||| ... As to conditions: anti-TB, cited from earlier work.

As for `C=C/C(C)=C/[C@@]1(C)SC(=O)C(C)=C1O` [Thiolactomycin], the MIC (target β-ketoacyl-ACP synthase, ref [21]) is 92.5 µM (≈ 19.5 µg/mL).
In the case of Cyclomarin A, the MIC (target ClpC1, ref [22],[23]) was 0.3 to 2.5 µM.
Take Ecumicin: the MIC (target ClpC1, ref [17]) was 0.13 to 0.3 µM.
Take Ilamycins: for the setting “target not given, ref [25]”, the MIC is 0.0098 µM.
Consider Lassomycin, for which, for the setting “target ClpC1, ref [15],[16]”, the MIC was 0.42 to 1.57 µM.
Regarding Teixobactin, for the setting “target lipid II, ref [24]”, the MIC was 0.125 µM.
